Data on three compounds can be found in patent US8030547B2, “Gene coding for acetolactate synthase” (priority 2002, dated 2011).

For assay [1], the target named is T1, mutant ALS protein of Rb line (Oryza sativa subsp. japonica, UniProt Q6K2E8, P171H, form not given).
T1 construct: other: partially purified ALS, 30° C., probit analysis
As to the kind of experiment: Herbicide sensitivity of partially purified ALS protein (ALS activity inhibition), Rb line. In kind it is biochemical, Oryza sativa var. Kinmaze. The conditions noted are these: read-out: I50 (nM) Rb; partially purified ALS, 30° C., probit analysis. The method, then: (§1) First, 200 g or more of resistant mutant was prepared by a liquid culture method (no supplementation with bispyribac-sodium), using a composition as shown in Table 3 excluding Gelrite. Then, about 150 g of the resistant mutant was homogenized using Hiscotron in a volume of buffer-1 [100 mM potassium phosphate buffer (pH 7.5) containing 20% (v/v) glycerol, […] thiamin pyrophosphate (TPP), 10 μM flavin adenine dinucleotide (FAD), 0.5 mM MgCl2, and a volume of polyvinyl polypyrrolidone one-tenth that of tissue volume] 3-fold greater than tissue volume. The homogenate was filtered through nylon gauze, and then centrifuged at 15000×g for 20 minutes. Ammonium sulfate was added to the centrifuged supernatant to 50% saturation, and then allowed to stand in ice for approximately 1 hour. The mixture was again centrifuged at 15000×g for 20 minutes, and then the precipitated fraction was dissolved in approximately 30 ml of buffer-2 [10 mM Tris hydrochloric acid buffer (pH 7.5) containing 20% (v/v) glycerol, 0.5 mM TPP and 0.5 mM MgCl2]. The mixture was again centrifuged at 15000×g for 20 minutes, and then the supernatant fraction was applied to a Sephadex G-25 (Amersham Bioscience). About 40 ml of the fraction that had passed through the column was collected as a crude enzyme solution.
(§2) Next, the protein concentration of the crude enzyme solution was measured by the Bradford method according to the manual of Bio-Rad Protein Assay. The crude enzyme solution was then filtered through a Whatman filter (Whatman), and then the crude enzyme solution in an appropriate protein amount (10 to 15 ml) was applied to three vertically-connected HiTrap Q columns (Amersham Bioscience) using a FPLC device (Amersham Bioscience). After protein component was adsorbed using HiTrap Q, unadsorbed fractions were washed out using buffer-2 having a volume 3 to 5 fold greater than the bed volume. Then, the adsorbed protein component was eluted using an eluate having a volume 10 fold greater than the bed volume (150 ml). Here, the eluate was prepared by dissolving KCl with a linear concentration gradient (0 to 0.4 M) into buffer-2. The eluate containing the eluted protein component was apportioned, 5 ml each, into a plurality of test tubes for apportioning. Further, to stabilize ALS protein contained in the eluted protein component, 0.5 ml of buffer-2 containing 20 mM sodium pyruvate had been previously added to each test tube for apportioning.
(§3) ALS activity resulting from the mutant ALS protein contained in the eluted fractions apportioned into each test tube for apportioning was measured as follows. A reaction solution to be used in a measurement reaction was prepared by mixing an eluted fraction to be measured with a solution comprising 20 mM sodium pyruvate, 0.5 mM TPP, 0.5 mM MgCl2, 10 μM FAD and 20 mM potassium phosphate buffer (pH 7.5). One ml of this reaction solution was used. After the eluted fraction to be measured was added, the measurement reaction was performed at 30° C. for 40 to 60 minutes. Then, the reaction was stopped by addition of 0.1 ml of 6N sulfuric acid (or 0.25 N sodium hydroxide).
(§4) After the reaction was stopped, the reaction solution was incubated at 60° C. for 10 minutes, thereby converting acetolactate contained in the reaction solution to acetoin.
(§5) Then, to quantify acetoin contained in the reaction solution, 1 ml of 0.5% (w/v) creatine and 1 ml of 5% (w/v) α-naphthol dissolved in 2.5 N sodium hydroxide was added to the reaction solution, followed by incubation at 37° C. for 10 minutes. Acetoin was then quantified by color comparison of the absorbance (at 525 nm) of the reaction solution, thereby evaluating ALS activity. In addition, since the reaction solution contained a small amount of sodium pyruvate, reaction time 0 was used as control.
(§6) Using the enzyme solution containing the mutant ALS protein, sensitivity of the mutant ALS protein to bispyribac-sodium, chlorsulfuron and imazaquin was examined. […]

Assay [2] concerns mutant ALS protein of Rb line. Described as above. In kind it is biochemical, Oryza sativa var. Kinmaze. The conditions noted are these: I50 of the resistant mutant divided by I50 of the wild type. Here is the method:
as §1, §2, §3, §4, §5, §6

For assay [3], the target named is T2, GST fusion P171H/S627I mutant ALS protein (Oryza sativa subsp. japonica, UniProt Q6K2E8, P171H/S627I).
T2 construct: made in house; host or cells: E. coli, pGEX-2T(ALS-P171H, S627I mutant); crude supernatant
T2 sequence (Q6K2E8 44-644 P171H/S627I): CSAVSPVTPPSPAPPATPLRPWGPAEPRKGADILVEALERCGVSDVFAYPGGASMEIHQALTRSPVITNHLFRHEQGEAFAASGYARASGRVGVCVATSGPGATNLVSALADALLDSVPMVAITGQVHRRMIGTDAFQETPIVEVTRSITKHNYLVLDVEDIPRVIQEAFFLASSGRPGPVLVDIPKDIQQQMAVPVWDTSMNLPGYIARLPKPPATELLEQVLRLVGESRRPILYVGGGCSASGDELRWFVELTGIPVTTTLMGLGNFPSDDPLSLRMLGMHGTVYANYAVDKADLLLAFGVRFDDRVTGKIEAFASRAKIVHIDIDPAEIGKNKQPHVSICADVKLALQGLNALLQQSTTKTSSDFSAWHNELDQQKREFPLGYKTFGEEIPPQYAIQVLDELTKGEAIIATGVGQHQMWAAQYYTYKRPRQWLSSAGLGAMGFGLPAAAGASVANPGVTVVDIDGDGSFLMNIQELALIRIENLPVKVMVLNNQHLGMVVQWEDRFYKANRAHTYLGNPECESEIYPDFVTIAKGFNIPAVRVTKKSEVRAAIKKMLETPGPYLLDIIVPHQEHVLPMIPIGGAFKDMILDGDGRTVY
Description: Herbicide sensitivity of ALS protein expressed in E. coli (crude enzyme solution), P171H/S627I. Particulars: for RS ratio/ predicted RS ratio / Predicted RS ratio: P171H/S627I mutant; for RS ratio: P171H/S627I mutant vs wild type; for Predicted RS ratio: product of RS ratios of the 1-point mutants. The assay is classed as biochemical, rice (Oryza sativa var. Kinmaze). Here is the method:
as §3, §4, §5
E. coli transformed with pGEX-2T(ALS-wild) constructed in Example 3(5), E. coli transformed with pGEX-2T(ALS-W548L mutant) constructed in Example 5, E. coli transformed with pGEX-2T(ALS-S627I mutant) constructed in Example 5, E. coli transformed with pGEX-2T(ALS P171H mutant) constructed in Example 6, E. coli transformed with pGEX-2T(ALS R172S mutant) constructed in Example 6, E. coli transformed with pGEX-2T(ALS P171H, R172S mutant) constructed in Example 7, E. coli transformed with pGEX-2T(ALS-P171H, W548L mutant) constructed in Example 8, E. coli transformed with pGEX-2T(ALS-P171H, S627I mutant) constructed in Example 8, and E. coli transformed with pGEX-2T(ALS-P171H, W548L, S627I mutant) constructed in Example 9 were respectively shake-cultured (pre-culture) at 27° C. in 2 ml of LB liquid medium containing ampicillin. These types of E. coli were respectively cultured in 250 ml of LB liquid medium containing ampicillin using 1 ml of the pre-culture solution. After culturing overnight, 1 mM IPTG was added to the media, and then culturing was performed for a further 3 to 4 hours, so that the expression of GST fusion protein was induced. In addition, the cells were stored at −80° C. after washing.
Preparation and purification of ALS from E. coli were performed by the following method. First, the pellet of the transformant E. coli stored at −80° C. was suspended in ALS extraction buffer (potassium phosphate buffer (pH 7.5) containing 30% glycerol and 0.5 mM MgCl2). Specifically, 2.5 ml of the buffer was added to the pellet obtained from 50 ml of the culture solution. The suspension was subjected to ultrasonication (Heat Systems-Ultrasonics, Sonicator W-225R, micro chip, output control 8, interval of approximately 1 second, twice (40 seconds each)), and subjected to centrifugation at 15000×g, 4° C. for 20 minutes, thereby obtaining the supernatant as a crude enzyme solution.
Herbicide sensitivity of the wild type ALS protein and that of mutant ALS protein were examined using the 9 types of crude enzyme solutions obtained in Example 10. Herbicide sensitivity test was performed according to procedures almost the same as those in Example 2. However, in this example, reaction temperature was 37° C., reaction time was 30 minutes, and 10 mM valine was added to the reaction solution to inhibit ALS activity derived from E. coli. Further, three types of herbicides, bispyribac-sodium, pyrithiobac-sodium, and pyriminobac, were used as PC herbicides; chlorsulfuron was used as a sulfonylurea herbicide; and imazaquin was used as an imidazolinon herbicide. […]

T1 sequence (Q6K2E8 whole entry P171H/W548L, form open): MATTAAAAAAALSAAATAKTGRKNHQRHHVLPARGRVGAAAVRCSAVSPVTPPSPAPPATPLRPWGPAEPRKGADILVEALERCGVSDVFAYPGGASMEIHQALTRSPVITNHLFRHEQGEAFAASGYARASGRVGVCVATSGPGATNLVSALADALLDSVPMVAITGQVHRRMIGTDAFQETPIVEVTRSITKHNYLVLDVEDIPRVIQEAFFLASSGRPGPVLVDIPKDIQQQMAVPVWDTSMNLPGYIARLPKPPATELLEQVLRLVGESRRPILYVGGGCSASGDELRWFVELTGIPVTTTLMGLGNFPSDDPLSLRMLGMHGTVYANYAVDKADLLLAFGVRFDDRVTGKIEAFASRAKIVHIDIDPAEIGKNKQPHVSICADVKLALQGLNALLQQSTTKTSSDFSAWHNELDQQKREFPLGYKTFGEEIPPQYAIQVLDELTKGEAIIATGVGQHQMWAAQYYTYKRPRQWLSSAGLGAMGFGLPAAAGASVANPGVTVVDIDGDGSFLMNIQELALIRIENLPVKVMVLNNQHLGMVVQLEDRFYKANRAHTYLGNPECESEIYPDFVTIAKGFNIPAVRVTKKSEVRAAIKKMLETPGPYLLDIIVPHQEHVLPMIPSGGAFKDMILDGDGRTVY

Consider `COc1cc(OC)nc(Oc2cccc(Oc3nc(OC)cc(OC)n3)c2C(=O)O)n1` [bispyribac-sodium], for which the IC50 in assay [1] amounted to 247000 nM. Also, in assay [2], the “RS ratio Rb” value stood at 43900. In addition, in assay [3], the IC50 stood at 23 µM, the “RS ratio/ predicted RS ratio” value is given as 10, the RS ratio turned out to be 3700 and the “Predicted RS ratio” value is on record as 360.
Consider `COc1nc(C)nc(NC(=O)NS(=O)(=O)c2ccccc2Cl)n1` [chlorsulfuron], for which the IC50 in assay [1] is 32000 nM. The “RS ratio Rb” value in assay [2] is given as 1850. Besides, in assay [3], the IC50 was found to be 9.9 µM, the “RS ratio/ predicted RS ratio” value was 3.8, the RS ratio is given as 760 and the “Predicted RS ratio” value is on record as 200.
As for `CC(C)C1(C)N=C(c2nc3ccccc3cc2C(=O)O)NC1=O` (stereo not drawn) [imazaquin], in assay [1], the IC50 came out at 609000 nM. Further, the “RS ratio Rb” value in assay [2] stood at 411. Besides, in assay [3], the IC50 was found to be 71 µM, the “RS ratio/ predicted RS ratio” value is 3.2, the RS ratio is on record as 32 and the “Predicted RS ratio” value is given as 10.
